# Like-named read-outs stand apart in the source and are kept apart here.
# Columns and labels:
# Format in all cases: cell-based
# [1] = tested on: Salmonella spp.; experiment: MIC by NCCLS broth microdilution, 1100 Japanese clinical isolates 1997-1998; settings: Salmonella spp. (n=29)
# [2] = tested on: Gram negative anaerobic pathogens and facultative anaerobic pathogens; experiment: MIC by agar dilution, Brucella HK agar with 5% laked sheep blood, anaerobic reference strains
# [3] = tested on: Streptococcus pneumoniae; experiment: MIC by E-test (broth microdilution for gemifloxacin), 107 pneumococcal carrier isolates, Athens 1998; settings: for MIC Range: in µg/mL (unit assumed); for MIC50 / MIC90: Streptococcus pneumoniae; for MIC90: read-out: MIC90
# Experimental: Susceptibility testing was performed by agar dilution or epsilometer method (E-test), as recommended by the NCCLS. […] The susceptibility profiles of the strains were assessed using the Epsilometer method (E-test). The isolates were subdivided into two groups according to their penicillin susceptibility patterns (penicillin-susceptible and penicillin-intermediate.
# [4] = tested on: Enterococcus faecalis; experiment: MIC by agar macrodilution (NCCLS), 373 Gram positive isolates, Athens 1998
# [5] = tested on: Staphylococcus aureus; experiment: as above; settings: Methicillin-susceptible Staphylococcus aureus (n = 85)
# [6] = tested on: Salmonella spp.; experiment: MIC by agar dilution (NCCLS M7-A4), 288 enteropathogenic isolates, gemifloxacin and 15 other antimicrobials
# [7] = Penicillin-intermediate S. pneumoniae (n = 24), E-test
# [8] = Penicillin-susceptible S. pneumoniae (n = 107), E-test
smiles,measurement,setting,value
"N[C@@H]1[C@H]2CN(c3nc4c(cc3F)c(=O)c(C(=O)O)cn4-c3ccc(F)cc3F)C[C@@H]12 [Trovafloxacin, trovafloxacin]",MIC90,[1],0.063 µg/mL
same,MIC Range,[1],0.016 to 0.063 µg/mL
same,MIC,[2],0.125 µg/mL
same,MIC,"[2]; Bacteroides eggerthii, ATCC27754, Bacteroides eggerthii ATCC27754, read-out: MIC",0.5 µg/mL
same,MIC,[2]; Bacteroides fragilis,0.125 µg/mL
same,MIC,[2]; Bacteroides fragilis GA-I0558,0.125 µg/mL
same,MIC,"[2]; Bacteroides fragilis, ATCC25285",0.125 µg/mL
same,MIC,"[2]; Bacteroides fragilis, Bacteroides fragilis GA-I7955, read-out: MIC",0.25 µg/mL
same,MIC,"[2]; Bacteroides fragilis, Bacteroides fragilis GAI10150, read-out: MIC",0.25 µg/mL
same,MIC,"[2]; Bacteroides fragilis, Bacteroides fragilis GAI30079, read-out: MIC",0.5 µg/mL
same,MIC,"[2]; Bacteroides fragilis, Bacteroides fragilis GAI30144, read-out: MIC",0.25 µg/mL
same,MIC,"[2]; Bacteroides fragilis, NCTC10581, Bacteroides fragilis NCTC10581, read-out: MIC",0.25 µg/mL
same,MIC,"[2]; Bacteroides ovatus, ATCC8483, Bacteroides ovatus ATCC8483, read-out: MIC",0.5 µg/mL
same,MIC,"[2]; Bacteroides thetaiotaomicron, ATCC29741, Bacteroides thetaiotaomicron ATCC29741, read-out: MIC",0.5 µg/mL
same,MIC,"[2]; Bilophilla wadsworthia WAL7959, read-out: MIC",0.5 µg/mL
same,MIC,"[2]; Campylobacter gracilis, JCM8538, Campylobacter gracilis JCM8538, read-out: MIC",≤ 0.03 µg/mL
same,MIC,"[2]; Campylobacter ureolyticus, NCTC10941, Bacteroides ureolyticus NCTC10941, read-out: MIC",≤ 0.03 µg/mL
same,MIC,"[2]; Capnocytophaga ochracea, Capnocytophaga ochracea GAI5586, read-out: MIC",≤ 0.03 µg/mL
same,MIC,"[2]; Fusobacterium necrophorum, ATCC25286, Fusobacterium necrophorum ATCC25286, read-out: MIC",0.25 µg/mL
same,MIC,"[2]; Fusobacterium nucleatum, ATCC25586, Fusobacterium nucleatum ATCC25586, read-out: MIC",0.5 µg/mL
same,MIC,"[2]; Fusobacterium varium, ATCC8501, Fusobacterium varium ATCC8501, read-out: MIC",4 µg/mL
same,MIC,"[2]; Hoylesella oralis, ATCC33269, Prevotella oralis ATCC33269, read-out: MIC",2 µg/mL
same,MIC,"[2]; Parabacteroides distasonis, ATCC8503, Bacteroides distasonis ATCC8503, read-out: MIC",0.5 µg/mL
same,MIC,"[2]; Phocaeicola vulgatus, ATCC8482, Bacteroides vulgatus ATCC8482, read-out: MIC",0.5 µg/mL
same,MIC,"[2]; Porphylomonas gingivalis ATCC33277, read-out: MIC",≤ 0.03 µg/mL
same,MIC,"[2]; Porphyromonas asaccharolytica, ATCC25260",0.125 µg/mL
same,MIC,"[2]; Prevotella bivia, ATCC29303, Prevotella bivia ATCC29303, read-out: MIC",2 µg/mL
same,MIC,"[2]; Prevotella buccaeATCC33574, read-out: MIC",0.5 µg/mL
same,MIC,"[2]; Prevotella heparinolytica, ATCC35895",0.125 µg/mL
same,MIC,"[2]; Sutterella wadsworthensis, ATCC51579, Sutterella wadsworthensis ATCC51579, read-out: MIC",0.25 µg/mL
same,MIC,"[2]; Veillonella dispar, ATCC17748",0.125 µg/mL
same,MIC,"[2]; Veillonella parvula, ATCC10790, Veillonella parvula ATCC10790, read-out: MIC",0.25 µg/mL
same,MIC Range,[3]; [7],0.003-1
same,MIC Range,[3]; [8],0.008-1
same,MIC50,[3],0.125 µg/mL
same,MIC90,[3]; [7],0.38 µg/mL
same,MIC50,"[3]; Penicillin-susceptible S. pneumoniae (n = 107), E-test, read-out: MIC50",0.094 µg/mL
same,MIC90,[3]; [8],0.19 µg/mL
same,MIC distribution (µg/ml) 0.06,[4],1
same,MIC distribution (µg/ml) 0.125,[4],0
same,MIC distribution (µg/ml) 0.25,[4],6
same,MIC distribution (µg/ml) 0.5,[4],21
same,MIC distribution (µg/ml) 1,[4],23
same,MIC distribution (µg/ml) 2,[4],6
same,MIC distribution (µg/ml) 4,[4],0
same,MIC distribution (µg/ml) 8,[4],3
same,MIC distribution (µg/ml) 16,[4],3
same,MIC distribution (µg/ml) ≤0.015,[4],0
same,MIC distribution (µg/ml) ≥32,[4],17
same,MIC50,"[4]; Enterococcus faecalis, n = 81 isolates, read-out: MIC50",1 µg/mL
same,MIC90,"[4]; Enterococcus faecalis, n = 81 isolates, read-out: MIC90",≥ 32 µg/mL
same,MIC Range,[5],≤0.03 to 2 µg/mL
same,MIC50,[5]; read-out: MIC50,0.06 µg/mL
same,MIC90,[5]; read-out: MIC90,0.125 µg/mL
same,MIC,"[6]; S. hadar(2), isolates with MICs for ciprofloxacin ≥[…], read-out: MIC",0.5 mg/L
same,MIC,"[6]; S. newport(1), isolate with MIC for ciprofloxacin ≥[…], read-out: MIC",0.5 mg/L
same,MIC,"[6]; S. virchow(2), isolates with MICs for ciprofloxacin ≥[…], read-out: MIC",0.25 mg/L
same,MIC (mg/L) Range,[6]; Salmonella spp. N= 106,≤0.015 to 1 mg/L
same,MIC,"[6]; Salmonella, S. tshiongwe(1), isolate with MIC for ciprofloxacin ≥[…], read-out: MIC",1 mg/L
same,MIC,"[6]; Salmonella, read-out: MIC (mg/L) 50%, Salmonella spp. N= 106",0.06 mg/L
same,MIC,"[6]; Salmonella, read-out: MIC (mg/L) 90%, Salmonella spp. N= 106",0.25 mg/L

# Source: patent EP1561465A2, “Methods of use of fluoroquinolone compounds against bacteria” (LG Life Sciences, Ltd., priority 1999, dated 2001)
